Source: PMC4339887, “Selective Sirt2 inhibition by ligand-induced rearrangement of the active site” (Nature Communications, 2015)
pIC50: −log10 of the molar value. Entries after “also recorded” stand apart in the source; their conditions may differ.

Tests used:
[1] = test system: α-tubulin acetylation in HeLa cells; test: tubulin acetylation, western blot; type: cell-based; details: various concentrations, 5 h
Source text: Cell samples were then separated using SDS–PAGE (12.5% (w/v) polyacrylamide), transferred to an activated nitrocellulose membrane (Bio-Rad), blocked with non-fat dry milk (Roth, 5% (w/v), TBS, 0.1% (v/v) Tween 20) and probed with an anti-acetyl-α-tubulin antibody (1:1,000, Sigma-Aldrich, T6793) and an anti-GAPDH antibody (1:2,000–1:5,000, Sigma-Aldrich, G9545) as a loading control (Fusion SL, peqlab). An uncropped blot is shown in Supplementary Fig. 8.

[2] = test system: acetylation of the microtubule network in HeLa cells; test: immunofluorescence microscopy of acetylated microtubule network; type: cell-based; details: 4 h
Source text: Cells were then stained with an anti-acetyl-α-tubulin antibody (Sigma-Aldrich, T6793) and then probed with a secondary Alexa 546 conjugated anti-mouse-antibody (Invitrogen). Nuclei were counterstained with DAPI (4',6-diamidino-2-phenylindole). Coverslips were mounted with FluoroMount (Sigma-Aldrich) and sealed with DPX Mountant (Sigma-Aldrich). Images of the mounted samples were acquired on a Leica DM500 microscope equipped with a Leica DFC 395 FX camera and HBO 100 W lamp[40]. The microscope was run with the Leica Application Suite 4.4.0 software. Chroma UV filter set (No. C40888) and Leica N2.1 filter set (No. 513832) were used for DAPI and Alexa 546 signal acquisition, respectively, with a HCX FL Fluotar 40x/0.75 (dry) objective. Further details about the equipment and the settings that were used to acquire the images are found in the Supplementary Methods section. Unprocessed images are found in Supplementary Fig. 9. […]
Immunocytochemistry equipment and settings. The signal of Alexa 546 and DAPI of the same region were acquired with constant illumination parameters as grayscale 8-bit 600 dpi tiff files (1600u 1200 pixels). Alexa 546 was acquired after 639.1 ms with a gamma factor of 0.65 without multiplying. The gain was set to 1. DAPI-stained images were acquired after about 20 ms with the same parameters as the one for Alexa 546 image acquisition. The temperature in the microscope room was kept at RT. Representative regions of each samples were processed with Adobe Photoshop CS2 to generate images in RGB mode by copying the appropriate original greyscale images to the blue (nuclei, DAPI) and the red (acetylated D-tubulin signal, Alexa 546) channel, respectively. As adjustment, a minimal background subtraction was applied on all images during processing in the same manner. The resolution was changed from 600 dpi (source images) to 450 dpi without resampling (Fig. 7 of the main article). LUT (CLUT) of grayscale images of the acetylated D-tubulin signal and of the DAPI signal are shown in Supplementary Fig. 8. […]

BubR1 in HeLa cells = test: abundance of BubR1, western blot; type: cell-based; details: various concentrations, 16 h
Method: Cells were washed with PBS, lysed in IPLS (50 mM Tris/HCl, 150 mM NaCl, 0.5 mM EDTA, 0.5% (v/v) NP-40, pH 7.5, supplemented with Complete protease inhibitors (Roche)). Samples were pelleted and resuspended in 1 × SDS–PAGE sample buffer and heated (95 °C, 5 min). Cell samples were separated using SDS–PAGE (10% (w/v) polyacrylamide), transferred to a nitrocellulose membrane (Bio-Rad), blocked with non-fat dry milk (Roth, 5% (w/v), TBS, 0.1% (v/v) Tween 20) and probed with the anti-BubR1 (1:5,000, BD Biosciences, 612502) and anti-tubulin (1:5,000, Sigma-Aldrich, T5168) as a loading control. Uncropped blots are shown in the Supplementary Fig. 8.

[3] = test system: p53-Lys382-acetylation in U2OS cells; test: p53 acetylation after ultraviolet exposure, western blot; type: cell-based; details: 1 h pretreatment, 20 J cm^-2 UV, further 6 h
Method: U2OS cells (ATCC accession no. HTB-96) were seeded and cultured until they reached 90% confluency. […] Cells were incubated for an additional 6 h in the presence of the inhibitor and then lysed in IPLS (50 mM Tris/HCl, 150 mM NaCl; 0.5 mM EDTA; 0.5% (v/v) NP-40; 1 × Complete Protease Inhibitors (Roche), pH 8.0) and resuspended in 1 × Laemmli Buffer. Samples were then separated on SDS–PAGE, transferred to a nitrocellulose membrane (Bio-Rad), blocked with non-fat dry milk (Roth, 5% (w/v), TBS, 0.1% (v/v) Tween 20) and probed with anti-acetyl-p53 K382 (Cell Signaling, #2522), anti-p53 DO.1 (Santa Cruz Biotechnology, sc-126) and anti-vinculin (Cell Signaling, #4650) as a loading control. Uncropped blots are shown in the Supplementary Fig. 10.

human Sirt2 = molecular target: T1, human Sirt2 (Homo sapiens, UniProt Q8IXJ6); test: fluorescence-based in vitro sirtuin assay, substrate ZMAL
T1 sequence (Q8IXJ6 25-389): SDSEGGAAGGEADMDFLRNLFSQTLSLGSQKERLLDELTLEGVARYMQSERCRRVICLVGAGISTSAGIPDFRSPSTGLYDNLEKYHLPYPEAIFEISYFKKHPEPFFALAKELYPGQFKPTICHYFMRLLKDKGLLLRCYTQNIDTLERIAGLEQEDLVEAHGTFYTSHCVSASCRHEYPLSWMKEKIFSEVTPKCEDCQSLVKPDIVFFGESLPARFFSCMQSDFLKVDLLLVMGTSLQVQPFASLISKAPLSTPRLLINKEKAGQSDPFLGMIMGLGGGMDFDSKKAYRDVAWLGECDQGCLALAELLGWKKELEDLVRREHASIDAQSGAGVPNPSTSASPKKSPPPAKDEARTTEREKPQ

Sirt1 = test system: Sirt1; parameters: method as in earlier work; details: selectivity profile, Sirt1 entry; ref 2-9 (supplementary references); cited from earlier work
Sirt3 = test system: Sirt3; parameters: method as in earlier work; details: selectivity profile, Sirt3 entry; † inhibition substrate-dependent; ref 2-9 (supplementary references); cited from earlier work
[4] = test system: mitochondrial lysine-acetylation in HEK293 cells; test: mitochondrial protein acetylation, western blot of mitochondrial extracts; type: cell-based; details: 16 h
Method: page 27: Cell cultiva tion. HEK-293 cells (ATCC accession no. CRL-1573) were grown in Dulbecco's modified Eagle's medium (DMEM, PAA) containing 10% (vol/vol) fetal calf serum (FCS, PAA), 1% (vol/vol) penicillin (PAA), 1% (vol/vol) streptomycin (PAA), 1% (vol/vol), L- glutamine (PAA) at 37 °C in a 5% (vol/vol) CO2 atmosphere. Mitochondrial extra ction. HEK-293 cells (ATCC accession no. CRL-1573) were treated with nicotinamide or […]2 at the indicated concentrations for 16 h. Cells were washed in PBS and lysed in 5 packed cell volumes of lysis buffer (20 mM HEPES/KOH, 250 mM sucrose; 10 mM KCl, 1.5 mM MgCl2, 1 mM EDTA, 1 mM EGTA, 1 mM DTT; 0.1 mM PMSF, 1uComplete Protease Inhibitor Cocktail (Roche), pH 7.5). Cells were then homogenized in a Dounce homogenizer and 10% (vol/vol) of sample was removed for use as whole cell extract (WCE). To the remaining lysate, unbroken cells and nuclei were removed by centrifugation (10 min, 800g). The supernatant was transferred and centrifuged (10 min, 7,000g) to pellet mitochondria. Mitochondria were washed twice in lysis buffer, repeating centrifugation after each wash, followed by resuspending washed mitochondria in lysis buffer. […] Lysates were cleared by centrifugation, protein concentrations were quantitated and normalized with 1u Laemmli Buffer. […]

Sirt2 = molecular target: Sirt2; parameters: method as in earlier work; details: ref 2-9 (supplementary references), cited from earlier work
human Sirt1 = molecular target: T2, human Sirt1 (Homo sapiens, UniProt Q96EB6); test: fluorescence-based in vitro sirtuin assay, substrate ZMAL; details: at 50 μM
T2 sequence (Q96EB6 133-747): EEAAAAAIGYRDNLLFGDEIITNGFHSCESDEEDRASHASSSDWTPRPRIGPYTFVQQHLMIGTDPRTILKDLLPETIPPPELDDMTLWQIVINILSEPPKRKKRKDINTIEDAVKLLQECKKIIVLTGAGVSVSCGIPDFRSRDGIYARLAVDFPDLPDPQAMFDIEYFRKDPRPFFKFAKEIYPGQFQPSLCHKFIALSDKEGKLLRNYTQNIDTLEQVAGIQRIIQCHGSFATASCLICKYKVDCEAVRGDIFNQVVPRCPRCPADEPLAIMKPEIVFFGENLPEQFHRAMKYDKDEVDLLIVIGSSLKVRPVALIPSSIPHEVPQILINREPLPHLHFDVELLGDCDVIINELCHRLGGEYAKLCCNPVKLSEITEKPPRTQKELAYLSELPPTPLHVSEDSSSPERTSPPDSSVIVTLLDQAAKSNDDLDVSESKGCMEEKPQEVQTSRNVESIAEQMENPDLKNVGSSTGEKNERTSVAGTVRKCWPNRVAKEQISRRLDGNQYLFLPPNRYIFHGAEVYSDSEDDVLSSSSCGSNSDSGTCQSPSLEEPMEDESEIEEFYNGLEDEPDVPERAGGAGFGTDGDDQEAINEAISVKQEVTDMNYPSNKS

**Q.** For `Cc1cc(C)nc(SCC(=O)N(C)c2ncc(Cc3cccc4ccccc34)s2)n1` [SirReal6], which “level of α-tubulin acetylation” value [1] is on record?
**A.** not

**Q.** What about the “acetylation level of the microtubule network” value ([2]; 50 μM) of the same molecule?
**A.** does not alter; also recorded: no substantial change

**Q.** And the “abundance of BubR1” value (BubR1 in HeLa cells)?
**A.** did not influence

**Q.** And the “acetylation of p53 (Lys382) after ultraviolet exposure” value [3]?
**A.** did not observe an increase

**Q.** And the pIC50 (human Sirt2)?
**A.** < 4.00

**Q.** With `O=C(Nc1ccccc1-c1cn2c(CN3CCNCC3)csc2n1)c1cnc2ccccc2n1` [SRT1720] as the molecule, how does the “Selectivity Sirt1/Sirt2/Sirt3 (fold): Sirt1” value (Sirt1) read?
**A.** activation

**Q.** What about the “Selectivity Sirt1/Sirt2/Sirt3 (fold): Sirt3” value (Sirt3) of the same molecule?
**A.** 1 fold

**Q.** Which results are given for `NC(=O)c1cccnc1` [NCA, nicotinamide, reference compound]?
**A.** acetylation of p53 (Lys382) after ultraviolet exposure [3]: further increased; acetylation of p53 (Lys382) after ultraviolet exposure ([3]; listed as nicotinamide): increase; acetylation of mitochondrial proteins [4]: increase

**Q.** With `NC(=O)[C@H]1CCCCc2c1[nH]c1ccc(Cl)cc21` [CHIC-35] as the molecule, how does the “IC50/kd for Sirt2” value (Sirt2; published values, Supplementary Table 1) read?
**A.** 2.4 µM

**Q.** And the “Selectivity Sirt1/Sirt2/Sirt3 (fold): Sirt2” value (Sirt2; selectivity profile, Sirt2 entry)?
**A.** 23 fold

**Q.** And the “Selectivity Sirt1/Sirt2/Sirt3 (fold): Sirt1” value (Sirt1)?
**A.** 1 fold

**Q.** And the “Selectivity Sirt1/Sirt2/Sirt3 (fold): Sirt3” value (Sirt3)?
**A.** > 833 fold

**Q.** Which “abundance of BubR1” value (BubR1 in HeLa cells) does the source give for `Cc1cc(C)cc(SCC(=O)Nc2ncc(Cc3cccc4ccccc34)s2)c1` [SirReal5] here?
**A.** did not influence

**Q.** And the “acetylation of p53 (Lys382) after ultraviolet exposure” value [3]?
**A.** did not observe an increase

**Q.** What about the pIC50 (human Sirt2) of the same molecule?
**A.** < 4.30

**Q.** With `O=C(CSc1ncccn1)Nc1ncc(Cc2ccccc2)s1` [SirReal4] as the molecule, how does the pIC50 (human Sirt2) read?
**A.** 4.77

**Q.** With `O=C(CSc1ncccn1)Nc1ncc(Cc2cccc3ccccc23)s1` [SirReal3] as the molecule, how does the pIC50 (human Sirt2) read?
**A.** 5.64

**Q.** For `N#C/C(=C\c1ccc(-c2cc(Cl)ccc2Cl)o1)C(=O)Nc1cccc2ncccc12` [AGK2, reference compound], which “acetylation level of the microtubule network” value ([2]; 20 μM) is on record?
**A.** hyperacetylation of the microtubule network

**Q.** And the “activity of Sirt1” value (human Sirt1)?
**A.** not affected
